Data from patent US20030229132A1, “Small molecule modulators of apoptosis” (priority 2002, published 2003).

B1: Fas Ligand: induces apoptosis which proceeds through the caspase-8 pathway (protein, UniProt P48023 130-281, looked up)
Tumor necrosis factor ligand …: QIGHPSPPPEKKELRKVAHLTGKSNSRSMPLEWEDTYGIVLLSGVKYKKGGLVINETGLYFVYSKVYFRGQSCNNLPLSHKVYMRNSKYPQDLVMMEGKMMSYCTTGQMWARSSYLGAVFNLTSADHLYVNVSELSLVNFEESQTFFGLYKL

Assays:
[1] = tested on: Jurkat cells; test: Caspase-3 activation in Jurkat cells (immunoblot); assay type: cell-based, human; details: 50 μM compound or 1 μM staurosporin, 6 hr
Procedure: (§1) (C) DNA fragmentation analysis. […] Cell viability assay.
(§2) Compounds were then tested for their ability to induce apoptosis in live cells. The ability of the compounds to activate caspase-3 in a Jurkat cell line was first assayed. […] This same pattern was seen when we assayed for the cleavage of poly (ADP-ribose) polymerase (PARP), a cellular substrate of caspases-3 and -7 (see, D. W. Nicholson, Cell Death Differ 6, 1028-42 (1999)). Upon apoptosis, PAR-P is cleaved from a 116 kD to an 85 kD protein.

[2] = tested on: Jurkat cells; test: PARP cleavage in Jurkat cells (immunoblot); assay type: cell-based, human; details: 50 μM compound or 1 μM staurosporin, 6 hr
Procedure: as §1, §2

[3] = tested on: Jurkat cells; test: DNA fragmentation analysis in Jurkat cells; assay type: cell-based, human; details: 50 μM compound or 1 μM staurosporin, 8 hr
[4] = tested on: peripheral blood lymphocytes (PBL); test: Cell viability, PBL; assay type: cell-based, human; details: normal cell
From the text: (§3) Samples were then probed by immunoblot for (A) caspase-3 activation or (B) cleavage of PARP. (C) DNA fragmentation analysis. […] The DNA was isolated by phenol/chloroform extraction, separated on a 2% agarose gel and visualized by ethidium bromide staining. Cell viability assay.
(§4) Normal cell lines include peripheral blood lymphocytes (PBL) isolated from donated human blood, non-transformed mammary fibroblasts (MCF-10A), human mammary epithelial cells (HMEC), human umbilical vein endothelial cells (HUVEC), and human prostate epithelial cells (PREC). Transformed cell lines include cell lines from leukemia, breast, lung, ovarian, and epidermal cancers (Table 1).

[5] = tested on: CCRF-CEM; test: Cell viability, CCRF-CEM; assay type: cell-based, human; details: leukemia
From the text: as §3, §4

[6] = tested on: NCI-H23; test: Cell viability, NCI-H23; assay type: cell-based, human; details: NCI-H23, lung
[7] = tested on: Normal (PBL) and cancer (Jurkat, Molt-4, CCRF-CEM) lymphocyte cell lines; test: Cell viability, normal and cancer lymphocyte cell lines compared; details: all four lymphocyte cell lines, normal and cancerous
From the text: as §3, §4

[8] = tested on: caspase-3 (DEVDase activity); test: DEVDase fluorescence screen in HeLa cell S-100 cytoplasmic extracts; assay type: biochemical; details: in vitro fluorescence assay, HeLa S-100 extracts with cyto c
From the text: In order to identify compounds that modulate apoptosis, a chemical genetics approach was utilized to screen for molecules that target components of the apoptosis pathway (see, T. U. Mayer et al., Science 286, 971-4 (1999)). An in vitro screen using cytoplasmic extracts was adapted for apoptosis to a 96-well format and used to test an in-house library of ˜3500 compounds (see, T. Fernandes-Alnemri et al, Proc Natl Acad Sci USA 93, 7464-9 (1996); X. Liu, C. N. Kim, J. Yang, R. Jemmerson, X. Wang, Cell 86, 147-57 (1996); L. M. Leoni et al., Proc Natl Acad Sci USA 95, 9567-71 (1998)). Briefly, individual compounds were added to HeLa cell S-100 cytoplasmic extracts at a final concentration of 1 mM and apoptosis was induced by adding bovine heart cyto c (HeLa cell cytoplasmic extracts were prepared according to previously published reports (see, P. Li et al., Cell 91, 479-89 (1997)). Compounds were distributed into 96-well microtiter plates at a final concentration of 1 mM. To each well was added 250 μg of total protein from cytoplasmic extracts in HEB buffer (50 mM Hepes pH 7.4, 50 mM KCl, 5 mM EGTA, 2 mM MgCl), with 2 mM DTT, 2 μM cyto c, and 0.5 μM DEVD-AFC substrate in a total of 150 μL. Plates were incubated at 37° C. and fluorescence was read in a LJL Biosystems plate reader at 10 min intervals). Activation of caspase-3 was monitored by cleavage of a fluorogenic substrate, Asp-Glu-Val-Asp-7-amino-4-trifluoromethylcoumarin (DEVDase activity). As designed, the DEVDase fluorescence screen encompasses the release of cyto c from the mitochondria to the activation of caspase-3. Possible targets include cyto c, Apaf-1, caspase-9, caspase-3, inhibitors of apoptosis (IAPs), and possible unidentified components present in the cytosol.

[9] = tested on: procaspase-3 processing; test: Procaspase-3 processing by capture ELISA in HeLa cell extract (cyto c / compound titration); assay type: biochemical; details: cyto c titrated into HeLa cell extract, no compound; read-out: concentration for half-maximal activation (AC50) of procaspase-3 processing
Procedure: FIG. 2 depicts activity of compounds 1-5 in cell lysates. (A) Compound activation is cyto c dependent. Cyto c was titrated into S-100 cytoplasmic extracts with vehicle alone or 20 μM compound and procaspase-3 processing was assayed by capture ELISA. (B) Compound activation is dose-dependent. Compounds or vehicle were titrated into S-100 cytoplasmic extracts at a cyto c concentration of 1.25 μM and procaspases-3 processing was assayed by capture ELISA. (C) Immunoblot assay of compound-induced caspase activation. Samples at the 20 μM compound concentration in (B) were separated on SDS-polyacrylamide gel and transferred to polyvinyl membrane. […]
In order to determine if these compounds required cyto c for caspase-3 activation, cyto c was titrated into HeLa cell extract in the presence and absence of compounds and procaspase-3 processing was monitored by capture ELISA (Cyto c was titrated into lysates as detailed in the screening procedure. Capture ELISA assay for active caspase-3 was adapted from Aragones et al., www.biocarta.com. Briefly, a mouse monoclonal antibody recognizing both full-length and cleaved caspase-3 (capture antibody, Transduction Laboratories) was immobilized onto an immunosorp plate and blocked with 5% milk, and 25 μL of the caspase activation reaction in 75 μL Superblock (Pierce) was added. […]

[10] = tested on: Jurkat cells transfected with Apaf-1 siRNA; test: Viability of Jurkat cells transfected with Apaf-1 siRNA (MTT test); assay type: cell-based, human; details: 20 nM Apaf-1 siRNA 48 hr, then 24 hr incubation
Procedure: (A) Jurkat cells were transfected with 20 nM Apaf-1 siRNA for 48 hr and half the cells were lysed and probed with antibodies to Apaf-1, caspase-9, and caspase-3. The other half of the cells was incubated with varying concentrations of (B), compound 2 or (C), Fas ligand for 24 hr and assayed for viability by MTT test. (D) SK-OV-3 cells were transiently transfected with Apaf-1 or vector control for 24 hr and then incubated with vary concentrations of compound 2 and assayed for viability. (E) Cyto c was titrated into SK-OV-3 cell lysate in the presence of 300 μM dATP, with or without 150 nM purified Apaf-1 and 20 μM compound 2 as indicated.
In order to verify that compound 2 targets the apoptosome as a function of its cytotoxic activity, small interfering RNA (siRNA) was used to silence the expression of Apaf-1 in Jurkat cells. Sense and anti-sense oligonucleotides corresponding to nucleotides 978-998 of Apaf-1 (([…]) as reported by Lassus et al. Science 297, 1352-4. (2002)), were purchased from Dharmacon. Transfection of siRNA into Jurkat cells was accomplished using GeneSilencer (Gene Therapy Systems) according to manufacturer's instructions. There was a significant decrease in the level of expression of Apaf-1 48 hr after transfection of an Apaf-1 specific siRNA, without affecting the expression of caspases in the pathway (FIG. 5A).

Row | Molecule | processing of procaspase-3 [1] | cleavage of PARP [2] | DNA fragmentation [3] | activation of DEVDase activity [8] | other results
1 | CN[C@@H]1C[C@H]2O[C@@](C)([C@@H]1OC)n1c3ccccc3c3c4c(c5c6ccccc6n2c5c31)C(=O)NC4 [Staurosporin, reference compound] | significant processing | complete cleavage | “laddering” effect |  | IC50 [4]: 69 nM; IC50 [5]: 69 nM; IC50 [6]: 85 nM; susceptibility to cytotoxicity [7]: equally susceptible
2 | CCOC(=O)NCc1ccc(Cl)c(Cl)c1 [Compound 1] | no processing |  | less pronounced effect | most active | 
3 | O=C1Cc2ccccc2N1Cc1ccc(Cl)c(Cl)c1 [Compound 3] | significant processing | limited processing | induced DNA fragmentation | strongly activated DEVDase activity | 
4 | cyto c: bovine heart cyto c added to cytoplasmic extracts to induce apoptosis |  |  |  |  | AC50 [9]: ~1750 nM
5 | B1 |  |  |  |  | cell killing after silencing of Apaf-1 [10]: still sensitive
